Measured values as given in US4761408A, “Crystalline aminomethyl compound” (priority 1984, dated 1988).
Values after ≈ are worked out from the molar mass of the structure shown.

Tests used:
[1] = tested on: Streptococcus pyrogenes Aronson 1129; test: in vitro MIC; format: cell-based; conditions: ARONSON1129
[2] = Determination of the thermal stability (50°, HPLC penem content); format: physicochemical
Experimental: In order to determine the thermal stability, samples of crystalline (5R,6S)-2-aminomethyl-6-[(1R)-1-hydroxyethyl)-2-penem-3-carboxylic acid and amorphous racemic (5R,6S,1'R and 5S,6R,1'S)-2-aminomethyl-6-(1'-hydroxyethyl)-2-penem-3-carboxylic acid previously known from German Offenlegungsschrift No. 2 950 898 are used.
20 mg samples are weighed in glass tubes. The glass tubes are sealed firmly with PVC stoppers and heated in a thermostatted oil bath at 50°. At regular intervals individual glass tubes are removed from the oil bath, the samples are dissolved in 100 ml of doubly distilled water and the penem content is determined by means of HPLC analysis [UV detector: Kratos, 305 nm; injection machine: Wisp; 20 μl charge; integrator: Shimazu, C-R3A; pump: Altex, 2.0 ml/minute; column: Knauer, 25 cm×4 mm, C18 /10 um; eluant: acetonitrile/water 2:98, pH5].

[3] = tested on: Escheichia coli 205 R + TEM; test: in vitro MIC; format: cell-based; conditions: read-out: in vitro MIC
[4] = stability to storage of the solid product; format: physicochemical
[5] = tested on: Staphylococcus aureus, Escherichia coli or Streptococcus pyogenes; test: systemic infection of mice; format: in vivo; conditions: sc, parenteral, such as subcutaneous, administration
[6] = stability to the enzyme dehydropeptidase from human kidneys; format: in vitro ADME; conditions: kidney dehydropeptidase, read-out: t1/2 (stability to dehydropeptidase) (converted)
Source text: Compounds A and B have the following stability (expressed in half-life periods t1/2) to the enzyme dehydropeptidase from human kidneys: […]

[7] = Day 0, 50°, solid in sealed glass tube

Structure (SMILES): C[C@@H](O)[C@H]1C(=O)N2C(C(=O)O)=C(CN)S[C@H]12 (relative stereo) [Compound B, (1'R,5R,6S+1'S,5S,6R)-2-aminomethyl-6-(1'-hydroxyethyl)-2-penem-3-carboxylic acid, reference compound]
- MIC [1]: 0.5 µg/mL (≈ 2.05 µM)
- Penem content [2, 7]: approx. 100%
- Penem content ([2]; Day 1.8, 50°, 2592 min): 84%
- Penem content ([2]; Day 3, 50°, 4320 min): 78%
- Penem content ([2]; Day 4.5, 50°, 6480 min): 73%
- Penem content ([2]; Day 7, 50°, 10080 min): 67%
- Penem content ([2]; Day 9, 50°, 12960 min): 64%
- Penem content ([2]; Day 12, 50°, 17280 min): 63%
- Penem content ([2]; Day 14, 50°, 20160 min): 62%
- MIC [3]: 8 µg/mL (≈ 32.8 µM)

Structure (SMILES): C[C@@H](O)[C@H]1C(=O)N2C(C(=O)O)=C(CN)S[C@H]12 [Compound A, (5R,6S)-2-aminomethyl-6-[(1R)-1-hydroxyethyl]-2-penem-3-carboxylic acid]
- MIC [1]: 0.2 µg/mL (≈ 0.819 µM)
- absorption of water from the air ([4]; approximately normal ambient conditions): no tendency to absorb relatively large quantities of water from the air
- stability under light, heat and air ([4]; relatively long-term action of light, heat (50° C.) and air): very stable
- ED50 [5]: 0.3 to 30 mg/kg
- half-life [6]: 6.75 h
- Penem content [2, 7]: approx. 100%
- Penem content ([2]; Day 1.8, 50°, 2592 min): 99%
- Penem content ([2]; Day 3, 50°, 4320 min): 98%
- Penem content ([2]; Day 4.5, 50°, 6480 min): 97%
- Penem content ([2]; Day 7, 50°, 10080 min): 95%
- Penem content ([2]; Day 9, 50°, 12960 min): 94%
- Penem content ([2]; Day 12, 50°, 17280 min): 92%
- Penem content ([2]; Day 14, 50°, 20160 min): 91%
- MIC [3]: 4 µg/mL (≈ 16.4 µM)
